This passage reports RP-LC retention time results from the METLIN SMRT retention time set (Domingo-Almenara et al. 2019).

Molecules are shown by their SMILES.

The nature of this series: gradient 5% acetonitrile 3 min, to 50% in 2 min, to 85% in 15 min, held 3 min, 100 µL/min. To be noted: column: Zorbax Extend-C18 2.1 x 50 mm; eluents: water / acetonitrile, 0.1% formic acid. The method, boiled down: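 Retention times come from adduct peaks that were picked computationally and then checked by hand. The standards, pure and pooled in mixtures of ~100 molecules, were run on a Zorbax Extend-C18 column (2.1 × 50 mm, 1.8 μm) at 100 μL/min with water and acetonitrile, each with 0.1% formic acid. Detection was by quadrupole time-of-flight mass spectrometry in positive and negative ionization mode, with a dead volume of 40 μL and a dwell volume of 900 μL.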
The compound `COCCN(CCOC)c1nc(S(=O)(=O)c2ccc(C)cc2)c(Cl)s1` registered an RP-LC retention time of 939 s.

`CC(=O)N1CCc2cc(N3CC(C(=O)N4CCN(C5CCCCC5)CC4)CC3=O)ccc21` (stereo not given) returned an RP-LC retention time of 578 s.

Take `COc1ccc(-c2nc3ncccn3c2Nc2ccc(C)c(Cl)c2)cc1`: the RP-LC retention time was found to be 821 s.

For the compound `COCCN1C(=O)[C@H]2CN(Cc3ccc(OC)c(OC)c3OC)C[C@H]2C1=O`, the RP-LC retention time came to 799 s.

Regarding `Cc1ccc(Cl)cc1NC(=O)N1CC=C(c2cn(C)c3ncccc23)CC1`, the RP-LC retention time worked out at 773 s.

Regarding `COc1cccc(CC(=O)N2CCC(C(=O)NCc3csc(-c4cccs4)n3)CC2)c1`, the RP-LC retention time was determined as 774 s.

`CCc1ccc(NC(=O)C2CCCN(c3ccc(=O)n(-c4cccc(Cl)c4)n3)C2)cc1` (stereo not given) had an RP-LC retention time of 922 s.

In the case of `O=C(NCc1ccc(-c2nc(C3CC3)no2)s1)c1ccc(F)cc1F`, the RP-LC retention time was 956 s.

Consider `Cn1cccc1-c1noc(C2CCN(C(=O)c3ccoc3)C2)n1` (stereo not given), for which the RP-LC retention time is 784 s.

The compound `O=C(CCc1nc(N2CCCCC2)c2c(-c3ccccc3)noc2n1)NC1CC1` gave an RP-LC retention time of 909 s.

As to `CCc1nc(-c2csc(S(=O)(=O)N3CCC(C(=O)N4CCOCC4)CC3)c2)no1`, the RP-LC retention time stood at 796 s.

`O=C(C1CC1)N1CCC(COCc2ccccc2)CC1` gave an RP-LC retention time of 831 s.

As to `CCn1c(C2CCN(C(=O)Nc3cccc(Cl)c3)CC2)cc(=O)n2nccc12`, the RP-LC retention time is 718 s.

In turn, `Cc1ccc(NC(=O)N2CCC(N3CCN(Cc4ccccc4)C3=O)CC2)cc1F` showed an RP-LC retention time of 872 s.

`O=C(NOCCc1ccccc1)Nc1ccc([N+](=O)[O-])cc1` gave an RP-LC retention time of 843 s.

In the case of `O=C(NCc1ccc(F)cc1)c1cn2cc(Cl)ccc2n1`, the RP-LC retention time is 799 s.

The compound `O=S(=O)(c1cc(-c2noc(C3CCCC3)n2)cs1)N1CCCCC1` returned an RP-LC retention time of 1240 s.

In turn, `O=C(CSc1ccc(N2CCCC(C(=O)NC3CC3)C2)nn1)Nc1cc(F)ccc1Cl` (stereo not given) gave an RP-LC retention time of 660 s.

As for `COc1ccc(C)cc1NC(=O)C1CC(=O)N(c2ccc3c(c2)CCN3C(=O)C2CC2)C1` (stereo not given), the RP-LC retention time came to 836 s.

As for `O=C(Cn1cnc2nc(N3CCC(C(=O)NC4CC4)CC3)sc2c1=O)NCC1CCCO1` (stereo not given), the RP-LC retention time is 589 s.

For the compound `O=C(Cn1nc2n(c1=O)CCCC2)NCCc1ccc(Cl)cc1`, the RP-LC retention time worked out at 678 s.

Turning to `Cc1cc(NS(=O)(=O)c2c(C)sc(C)c2-c2n[nH]c(C)c2C)ccc1Br`, the RP-LC retention time amounted to 1180 s.

Compound `CN(C)S(=O)(=O)c1ccc(-c2nnc(C(=O)NCc3ccc(C(F)(F)F)cc3)o2)cc1` showed an RP-LC retention time of 940 s.

Consider `COc1cc(C2OC(c3cccnc3)=NN2C(C)=O)cc(OC)c1OC` (stereo not given), for which the RP-LC retention time stood at 700 s.

In turn, `O=C(Nc1ccc(Cl)cc1)N1CCCC1c1nc(-c2ccc(F)cc2F)no1` (stereo not given) yielded an RP-LC retention time of 1040 s.

In turn, `O=C(CSc1nc2ccccc2s1)Nc1cccn2cc(-c3ccccc3)nc12` had an RP-LC retention time of 1110 s.

Compound `CCN1c2cc(F)ccc2C(=O)NC12CCN(C(=O)c1ccccc1C)CC2` yielded an RP-LC retention time of 835 s.

`Cc1ccccc1NC(=O)c1nc2ccccc2[nH]c1=O` registered an RP-LC retention time of 735 s.

With `COc1ccc(-c2noc(C3CCCN3C(=O)c3ccc(OC)nc3)n2)cc1` (stereo not given), the RP-LC retention time came out at 879 s.

`CCc1noc(NC(C)=O)c1-c1ccc(C)c(S(=O)(=O)N2CCN(c3ccccn3)CC2)c1`: the RP-LC retention time came out at 665 s.

The compound `CCOc1ccc(-n2nc(CO)c(C(=O)NC3CC3)n2)cc1` showed an RP-LC retention time of 814 s.

`COc1ccc(NC(=O)C2CCN(S(=O)(=O)c3cc4c(cc3C)NC(=O)CO4)CC2)cc1`: the RP-LC retention time was found to be 754 s.

`COC(=O)c1cccc(NC(=O)c2c[nH]c3ncccc23)c1` showed an RP-LC retention time of 708 s.

The compound `CCOc1cc(=O)n2c(c1C(=O)Nc1ccc(Cl)cc1F)CCCC2` displayed an RP-LC retention time of 806 s.

`Cc1ccccc1S(=O)(=O)N1CCC(N2CCN(Cc3ccccc3)C(=O)C2=O)CC1` returned an RP-LC retention time of 826 s.

With `CCOc1ccc(CNC(=O)C2CCCN(S(=O)(=O)c3ccc4c(ccn4CC)c3)C2)cc1` (stereo not given), the RP-LC retention time worked out at 1040 s.

For `CCCNC(=O)c1cc(C)nc2ccc(Cl)cc12`, the RP-LC retention time worked out at 719 s.

The compound `Cc1ccc(S(=O)(=O)NCCC(=O)O)cc1C` showed an RP-LC retention time of 639 s.

In turn, `CCOC(=O)c1c(C)oc2nc(C)nc(NCCCN3CCN(c4ccccc4OC)CC3)c12` yielded an RP-LC retention time of 596 s.

In the case of `CCCS(=O)(=O)c1nc2ccc(NS(=O)(=O)Cc3ccc(Cl)cc3)cc2s1`, the RP-LC retention time came to 953 s.

The compound `CC(C)Cn1c(=O)c(N2CCN(C(=O)NCc3ccc(F)cc3)CC2)nc2ccncc21` had an RP-LC retention time of 668 s.

`Cc1ccc(CNC(=O)C2(C)CCCN(C(=O)Nc3ccc(C)c(C)c3)C2)cc1` (stereo not given): the RP-LC retention time was determined as 897 s.

In turn, `CC(C)c1noc(-c2ccn3c(CC(=O)NC4CCCCCC4)nnc3c2)n1` displayed an RP-LC retention time of 823 s.

Take `CCN1CCN(C(=O)c2cc3c(=O)n(Cc4ccco4)ccc3nc2C)CC1`: the RP-LC retention time turned out to be 664 s.

In turn, `Cc1cc2c(N3CCN(CCO)CC3)ncnc2s1` displayed an RP-LC retention time of 520 s.

`Cc1nn(CC(=O)NC2CCCCCC2)c(=O)c2nc(-c3ccccc3)sc12` came in with an RP-LC retention time of 930 s.

`CCn1cc(-c2nc(CC(=O)Nc3ccccc3F)cs2)c2cccnc21` displayed an RP-LC retention time of 874 s.

Take `COc1cccc(-c2cc(N3CCN(C(=O)Nc4cc(OC)ccc4OC)CC3)ncn2)c1`: the RP-LC retention time came out at 688 s.

On to `COc1ccc(NC(=O)Cn2c(C)cc(-c3nnc(-c4ccco4)o3)c2C)cc1Cl`, for which the RP-LC retention time was determined as 903 s.

The compound `Cc1noc(C2CN(C(=O)Nc3cc(F)ccc3F)CC23CCOCC3)n1` (stereo not given) returned an RP-LC retention time of 733 s.

The compound `CCOC(=O)N1CCN(C(=O)CSc2nc(-c3cccc(C)c3)ns2)CC1` registered an RP-LC retention time of 941 s.

For the compound `CCN1C(=O)c2ccccc2Oc2ccc(C(=O)NCc3cccs3)cc21`, the RP-LC retention time came to 911 s.

Take `CN(C)S(=O)(=O)c1ccc(C(=O)Nc2nc(-c3ccc4c(c3)NC(=O)CO4)cs2)cc1`: the RP-LC retention time is 810 s.

Compound `O=S(=O)(Cc1ccccc1)N1CCC[C@H]1c1nc(-c2ccc(F)cc2)n[nH]1` yielded an RP-LC retention time of 819 s.

With `COC(=O)c1ccc(NC(=O)N2CCOc3ccc(Cl)cc32)cc1`, the RP-LC retention time came to 1000 s.

`O=S(=O)(NC1CCCCCC1)c1ccc(-c2nnc(C3CCC3)o2)o1`: the RP-LC retention time turned out to be 996 s.

`CCOc1ccc(-c2nc(-c3ccc(NS(=O)(=O)c4cccs4)cc3)no2)cc1` came in with an RP-LC retention time of 1170 s.

For the compound `CCOC(=O)c1cccc(NC(=O)N2CCN(C)c3ncccc32)c1`, the RP-LC retention time worked out at 637 s.

`COCCn1c(C)cc(O)c(C(c2ccc(Cl)cc2)N2CCC(C)CC2)c1=O` (stereo not given): the RP-LC retention time came to 644 s.

In the case of `O=C(COc1ccccc1)NCC1CC(=O)N(Cc2ccc(F)cc2)C1` (stereo not given), the RP-LC retention time stood at 692 s.

Consider `CCn1cc(-c2nc(C)c(C(=O)NCc3cccnc3)s2)c2cccnc21`, for which the RP-LC retention time is 629 s.

Compound `CCC(C(=O)Nc1c(-c2ccc(F)cc2)nc2cc(C)ccn12)c1ccccc1` (stereo not given) registered an RP-LC retention time of 745 s.

As for `COc1ccc(-c2cc(NCCc3ccc(OC)c(OC)c3)ncn2)cc1`, the RP-LC retention time is 563 s.

In the case of `CCc1ccc(CN2C(=O)CN(S(C)(=O)=O)CC2(C)C(=O)NC2CCCCCCC2)cc1` (stereo not given), the RP-LC retention time came out at 1040 s.

As to `CSc1nnc(CCc2c(C)[nH]c(=O)[nH]c2=O)o1`, the RP-LC retention time worked out at 549 s.

Regarding `CCN1CCCC(C(=O)NCc2cccs2)(c2ccccc2)CC1` (stereo not given), the RP-LC retention time is 643 s.

`COc1cc(NC(=O)NC(C)C)c2ncccc2c1` showed an RP-LC retention time of 757 s.

In turn, `CCN1CCn2cc(S(=O)(=O)Nc3ccc(C(=O)OC)cc3)cc2C1=O` gave an RP-LC retention time of 692 s.

Turning to `CCOC(=O)c1c(C)[nH]c(C(=O)N2CCCC(C(=O)NCc3ccco3)C2)c1C` (stereo not given), the RP-LC retention time turned out to be 722 s.

As for `CC(C)NC(=O)CCn1c(=O)c2ccccc2n2c(=O)n(Cc3ccccc3)nc12`, the RP-LC retention time was determined as 801 s.

`Cc1ccc2c(C)nc(NC3=NCN(Cc4ccccc4)CN3)nc2c1` yielded an RP-LC retention time of 772 s.

Regarding `Cc1nc(OCC(=O)Nc2ccc(Cl)cc2Cl)c2ccccc2n1`, the RP-LC retention time came out at 831 s.

`Cc1noc(C2(NC(=O)/C=C/c3cccnc3)CCCCC2)n1`: the RP-LC retention time came to 609 s.

Compound `COc1cc(NC(=O)c2ncoc2-c2ccc(C)o2)cc(OC)c1OC` yielded an RP-LC retention time of 920 s.

For `CCOc1nccnc1NC1CCN(C(=O)c2ccc(C)s2)CC1`, the RP-LC retention time is 726 s.

`O=C(NCCn1cnc(-c2ccccc2)cc1=O)c1ccc2nsnc2c1`: the RP-LC retention time was determined as 659 s.

For the compound `Cn1c(C(=O)NCc2ccccc2)cc2sc(Cl)cc21`, the RP-LC retention time stood at 1060 s.

The compound `Cc1cc(C)cc(-c2nnc(Cc3nc(-c4ccc(F)cc4)no3)o2)c1` yielded an RP-LC retention time of 1120 s.

In turn, `Cc1c(S(=O)(=O)NCc2ccccc2)c(C)n(C)c1-c1nnc(C2CCC2)o1` came in with an RP-LC retention time of 972 s.

`COc1ccc(-c2ccnn2-c2ccc(SCc3ccccc3C)nn2)cc1` gave an RP-LC retention time of 1390 s.
